# Laboratory results reported in patent US20060074073A1, “Therapeutic combinations comprising poly (ADP-ribose) polymerases inhibitor” (AGOURON PHARMACEUTICALS, INC., priority 2004, published 2006).
# Values joined by “and” are separate entries in the source; they are usually repeats but may differ in a detail not shown here. Identical values can stand only once. Like-named read-outs stand apart in the source and are kept apart here. Marks after values point to notes of the source that are not given here.
# Key:
# [1] = Plasma and tumor levels by HPLC/MS in mice bearing SW620 xenograft; format: in vivo; settings: for concentration at 0.5 h / concentration at 6 h / concentration at 24 h: mouse, intraperitoneal
# Method: In a parallel study plasma and tumor levels of the compound of formula 1 were measured by an HPLC/MS assay. In addition the degree of inhibition of tumor PARP catalytic activity was assessed using P^32-NAD incorporation into poly-ADP-ribose polymer in homogenates from SW620 tumors of treated animals. […] PARP catalytic activity was inhibited by 50% at 6 h and by 25% at 24 h.
# [2] = tested on: LoVo xenografts; assay: In vivo antitumor efficacy with irinotecan, LoVo xenograft; parameters: species or system mice; settings: once weekly × 3
# Source text: In no combination study was antagonism observed.
# [3] = tested on: PARP; assay: Tumor PARP catalytic activity, 32P-NAD incorporation in SW620 tumor homogenates of treated animals; format: in vivo, mice
# Method: Tumours were excised and were snap frozen in liquid nitrogen and stored at −80° C. until homogenised for analysis. The specimen was defrosted on ice and the wet weight documented. The tissue was homogenised using a Pro 2000 instrument (Pro Scientific Inc, Monroe, Conn., USA) in 3 volumes (i.e. 1 mg plus 3 μl isotonic buffer −7 mM Hepes, 26 mM KCl, 0.1 mM dextran, 0.4 mM EGTA, 0.5 mM MgCl2, 45 mM sucrose, pH 7.8), giving a homogenate with an overall dilution of 1 in 4. The homogenate was kept on ice throughout the process, and homogenisation was performed in 10 second bursts to prevent undue warming of the sample. Prior to assay the samples were further diluted with isotonic buffer where necessary to give a final dilution of 1 in 40 for [^32P]NAD incorporation assay or 1 in 1000 for immunoblot aaasy.
# Briefly, cells were suspended in hypotonic buffer (9 mM HEPES pH 7.8, 4.5% (v/v) dextran, 4.5 mM MgCl2 and 5 mM DTT) at 1.5×10^7/ml on ice for 30 minutes then 9 vol of isotonic buffer (40 mM HEPES pH 7.8, 130 mM KCl, 4% (v/v) dextran, 2 mM EGTA, 2.3 mM MgCl2, 225 mM sucrose and 2.5 mM DTT) was added. The reaction was started by adding 300 μl cells to 100 μl 300 μM NAD^+ containing [^32P]-NAD^+ (Amersham, UK), and terminated by the addition of 2 ml ice cold 10% (w/v) TCA+10% (w/v) sodium pyrophosphate. After 30 min on ice the precipitated ^32P—labelled ADP-ribose polymers were filtered on Whatman GC/C filters (Whatman Intemational Ltd, Kent, UK), washed 5 times with 1% (v/v) TCA/1% (v/v) sodium pyrophosphate, dried and counted. PARP inhibitory IC50 values were calculated from computer-fitted curves (GraphPad Software, Inc., San Diego, Calif.).
# Tumour homogenates were assayed in a similar manner; however, the homogenisation process introduces sufficient DNA damage to maximally stimulate PARP activity and oligonucleotide was not therefore required. Results were expressed in terms of pmol PAR former per mg tumour.
# Preparation of Tumour/Tissue Samples • 1. The frozen tumour samples are weighed. • 2. 3 volumes (i.e. 3 μl solution added for each 1 mg tissue) of isotonic buffer plus DTT is added to the tumour sample. This is stored on ice until and during homogenisation. • 3. The sample is homogenised on ice within a Class II cabinet for 10-second bursts until no detectable macroscopic pieces of tissue are visible. • 4. Sufficient volume of the homogenate is diluted 1 in 10 with isotonic buffer plus DTT to provide an overall dilution of 1 in 40 from the original sample. A final volume of 3 ml is sufficient for triplicate sampling and a subsequent protein assay. • 5. The diluted homogenate is stored on ice and assayed within one hour as below.
# PARP Assay of Tumour/Tissue Samples • 1. ^32P 600 μM NAD solution is prepared fresh on the day of experiment as detailed above. Oligonucleotide stock is removed from storage and defrosted. • 2. Water bath is warmed to 26° C. and set to agitate at 70 oscillations per minute.
# 3. Reaction test tubes are set up as per table A for the QC samples and as per table B for the homogenate.
# • 4. Each QC sample is assayed in triplicate, with T0, +oligo and −oligo samples ×3. (Total of 9 tubes per sample, if low cell counts −oligo samples are omitted.) Homogenates are also assayed in triplicate, with T0 and reaction samples ×3. (Total 6 tubes per sample). • 5. 2 ml ice cold 10% TCA+10% NaPPi is added to the T0 tubes prior to addition of homogenate or cells, to correct for non-specific binding of radio-label to the filter. • 6. Reaction test tubes homogenates and QC cells are warmed in the water bath to 26° C. for 7 minutes. • 7. Each preparation is vortexed briefly and the reaction is started by adding 300 μl of this to each reaction tube. • 8. The reaction is stopped exactly 6 minutes after addition of homogenate by adding 2 ml of ice cold 10% TCA+10% NaPPi and vortexing. • 9. The tube is then incubated on ice for at least one hour prior to filtration. • 10. […]
# [4] = tested on: SW620 human colon carcinoma xenograft; assay: In vivo antitumor efficacy with temozolomide, SW620 xenograft
# [5] = tested on: LoVo cells; assay: Inhibition of cell growth and potentiation of temozolomide/topotecan, LoVo; format: cell-based
# [6] = irinotecan 25 mg/kg i.p. + 0.5 mg/kg i.p. (glucuronate salt)
# [7] = SW620, 0.1 mg/kg i.p. glucuronate salt + temozolomide 68 mg/kg p.o., QD×5
# [8] = SW620, 1.0 mg/kg i.p. glucuronate salt + temozolomide 68 mg/kg p.o., QD×5
smiles,measurement,setting,value
CNCc1ccc(-c2[nH]c3cc(F)cc4c3c2CCNC4=O)cc1.O=C[C@H](O)[C@@H](O)[C@H](O)[C@H](O)C(=O)O [compound of formula 1 glucuronate salt],Plasma compound of formula 1,"[1]; 0.1 mg/kg i.p. as glucuronate salt + temozolomide 68 mg/kg p.o., 0.5 h",12.7 ± 2.3 ng/mL
same,Plasma compound of formula 1,"[1]; 0.1 mg/kg i.p. as glucuronate salt + temozolomide 68 mg/kg p.o., 6 h",0.0 ± 0.0 ng/mL
same,Plasma compound of formula 1,"[1]; 0.1 mg/kg i.p. as glucuronate salt + temozolomide 68 mg/kg p.o., 24 h",0.0 ± 0.0 ng/mL
same,Plasma compound of formula 1,"[1]; 1.0 mg/kg i.p. as glucuronate salt + temozolomide 68 mg/kg p.o., 0.5 h",92.0 ± 28.0 ng/mL
same,Plasma compound of formula 1,"[1]; 1.0 mg/kg i.p. as glucuronate salt + temozolomide 68 mg/kg p.o., 6 h",4.7 ± 4.0 ng/mL
same,Plasma compound of formula 1,"[1]; 1.0 mg/kg i.p. as glucuronate salt + temozolomide 68 mg/kg p.o., 24 h",0.0 ± 0.0 ng/mL
same,Plasma compound of formula 1,"[1]; 10 mg/kg i.p. as glucuronate salt + temozolomide 68 mg/kg p.o., 0.5 h",1532 + 134 ng/mL
same,Plasma compound of formula 1,"[1]; 10 mg/kg i.p. as glucuronate salt + temozolomide 68 mg/kg p.o., 6 h",98.0 ± 28.0 ng/mL
same,Plasma compound of formula 1,"[1]; 10 mg/kg i.p. as glucuronate salt + temozolomide 68 mg/kg p.o., 24 h",17.8 ± 29.5 ng/mL
same,Enhancement (%),[2]; irinotecan 25 mg/kg i.p. + 0.0 mg/kg i.p. (glucuronate salt),0%
same,Enhancement (%),[2]; irinotecan 25 mg/kg i.p. + 0.15 mg/kg i.p. (glucuronate salt),71%
same,Enhancement (%),[2]; [6],86^f %
same,PARP Activity (%),"[3]; 0.1 mg/kg i.p. glucuronate salt + temozolomide 68 mg/kg, 0.5 h",77.6 ± 13.3%
same,PARP Activity (%),"[3]; 0.1 mg/kg i.p. glucuronate salt + temozolomide 68 mg/kg, 6 h",90.2 ± 11.5%
same,PARP Activity (%),"[3]; 0.1 mg/kg i.p. glucuronate salt + temozolomide 68 mg/kg, 24 h",100.4 ± 7.5%
same,PARP Activity (%),"[3]; 1.0 mg/kg i.p. glucuronate salt + temozolomide 68 mg/kg, 0.5 h",24.9 ± 16.2%
same,PARP Activity (%),"[3]; 1.0 mg/kg i.p. glucuronate salt + temozolomide 68 mg/kg, 6 h",68.6 ± 36.2%
same,PARP Activity (%),"[3]; 1.0 mg/kg i.p. glucuronate salt + temozolomide 68 mg/kg, 24 h",70.2 ± 19.0%
same,PARP Activity (%),"[3]; 10 mg/kg i.p. glucuronate salt + temozolomide 68 mg/kg, 0.5 h",3.4 ± 1.4%
same,PARP Activity (%),"[3]; 10 mg/kg i.p. glucuronate salt + temozolomide 68 mg/kg, 6 h",4.8 ± 0.87%
same,PARP Activity (%),"[3]; 10 mg/kg i.p. glucuronate salt + temozolomide 68 mg/kg, 24 h",18.3 ± 12.7%
same,Enhancement (%),[4]; [7],28^g %
same,Enhancement (%),[4]; [8],≧100^g %
same,body weight loss,"[4]; SW620, temozolomide 68 mg/kg + 0.05 or 0.15 mg/kg glucuronate salt QD×5",No body weight loss
same,complete remission rate,"[4]; SW620, temozolomide 68 mg/kg + 0.15 or 0.5 mg/kg glucuronate salt QD×5",100%
same,Enhancement (%),"[4]; SW620, temozolomide 68 mg/kg oral + 0.05 mg/kg i.p. (glucuronate salt), once daily for 5 days",35%
same,Enhancement (%),"[4]; SW620, temozolomide 68 mg/kg oral + 0.15 mg/kg i.p. (glucuronate salt), once daily for 5 days",270^f %
same,Enhancement (%),"[4]; SW620, temozolomide 68 mg/kg oral + 0.5 mg/kg i.p. (glucuronate salt), once daily for 5 days",">60^f, g %"
"CNCc1ccc(-c2[nH]c3cc(F)cc4c3c2CCNC4=O)cc1 [compound of formula 1, 8-fluoro-2-{4-[(methylamino)methyl]phenyl}-1,3,4,5-tetrahydro-6H-azepino[5,4,3-cd]indol-6-one]",Tumor compound of formula 1,"[1]; 1.0 mg/kg i.p. as phosphate salt, 24 h",BLQ^c
same,plasma concentrations,"[1]; 1.0 mg/kg, 6 hours",barely detectable
same,Plasma compound of formula 1,"[1]; 10 mg/kg i.p. as phosphate salt, 0.5 h",1867 + 102 ng/mL
same,plasma concentrations,"[1]; 10 mg/kg, 24 h",barely detectable
same,tumor levels,"[1]; 10 mg/kg, all times up to 24 h",> 200 ng/mL
same,concentration at 0.5 h,"[1]; plasma, 1 mg/kg, Plasma compound of formula 1, 1.0 mg/kg i.p. as phosphate salt, 0.5 h",0.107 ± 0.0323 µg/mL
same,concentration at 6 h,"[1]; plasma, 1 mg/kg, Plasma compound of formula 1, 1.0 mg/kg i.p. as phosphate salt, 6 h",0.00664 ± 0.00155 µg/mL
same,concentration at 24 h,"[1]; plasma, 1 mg/kg, Plasma compound of formula 1, 1.0 mg/kg i.p. as phosphate salt, 24 h",0.00185 ± 0.00014 µg/mL
same,concentration at 6 h,"[1]; plasma, 10 mg/kg, Plasma compound of formula 1, 10 mg/kg i.p. as phosphate salt, 6 h",0.0644 ± 0.011 µg/mL
same,concentration at 24 h,"[1]; plasma, 10 mg/kg, Plasma compound of formula 1, 10 mg/kg i.p. as phosphate salt, 24 h",0.00234 ± 0.00033 µg/mL
same,concentration at 6 h,"[1]; plasma, 10 mg/kg, 6 h, read-out: plasma concentrations",0.03 µg/mL
same,concentration at 0.5 h,"[1]; tumor, 1 mg/kg, Tumor compound of formula 1, 1.0 mg/kg i.p. as phosphate salt, 0.5 h",98.3 ± 25.2 ng/g
same,concentration at 6 h,"[1]; tumor, 1 mg/kg, Tumor compound of formula 1, 1.0 mg/kg i.p. as phosphate salt, 6 h",49.5 ± 2.12 ng/g
same,concentration at 0.5 h,"[1]; tumor, 10 mg/kg, Tumor compound of formula 1, 10 mg/kg i.p. as phosphate salt, 0.5 h",767 ± 55.6 ng/g
same,concentration at 6 h,"[1]; tumor, 10 mg/kg, Tumor compound of formula 1, 10 mg/kg i.p. as phosphate salt, 6 h",523 ± 37.3 ng/g
same,concentration at 24 h,"[1]; tumor, 10 mg/kg, Tumor compound of formula 1, 10 mg/kg i.p. as phosphate salt, 24 h",167 ± 54.2 ng/g
same,Enhancement (%),[2]; [6],86%
same,PARP catalytic activity inhibited,"[3]; 1.0 mg/kg, 6 h",50%
same,PARP catalytic activity inhibited,"[3]; 1.0 mg/kg, 24 h",25%
same,PARP catalytic activity inhibited,"[3]; 10 mg/kg, 6 h",90%
same,PARP catalytic activity inhibited,"[3]; 10 mg/kg, 24 h",75%
same,Temozolomide PF50,[5]; +0.4 μM compound of formula 1,8 and 8.1
same,Topotecan PF50,[5]; +0.4 μM compound of formula 1,1.6 and 1.7
same,GI50,"[5]; Homo sapiens, 120 h, 5-day continuous exposure",12 µM
same,Enhancement (%),[4]; [7],28%
same,Enhancement (%),[4]; [8],100%
same,Enhancement (%),"[4]; SW620, temozolomide 200 mg/kg oral + compound 0.1 mg/kg i.p., single dose",50^e %
same,Enhancement (%),"[4]; SW620, temozolomide 200 mg/kg oral + compound 0.3 mg/kg i.p., single dose",80^e %
same,Enhancement (%),"[4]; SW620, temozolomide 200 mg/kg oral + compound 1 mg/kg i.p., single dose",107^e %
same,Enhancement (%),"[4]; SW620, temozolomide 200 mg/kg oral + compound 5 mg/kg i.p., single dose","111^e,f %"
"CNCc1ccc(-c2[nH]c3cc(F)cc4c3c2CCNC4=O)cc1.O=P(O)(O)O [Compound I, phosphate salt of 8-fluoro-2-{4-[(methylamino)methyl]phenyl}-1,3,4,5-tetrahydro-6H-azepino[5,4,3-cd]indol-6-one]",single-agent antitumor effects,[4]; Compound I alone,no single-agent antitumor effects
